Results from patent US20060229433A1, “Modified antiviral peptides with increased activity and cell membrane affinity” (priority 2003, published 2006).
Values joined by “and” are separate entries in the source; they are usually repeats but may differ in a detail not shown here. Equal values may be shown once. Square brackets hold non-standard residues; d marks the D form. Peptide text beside a SMILES is read from it. Ava = NCCCCC(=O)O

Legend:
Format in all cases: cell-based
HIV-1 NL 4-3 [1] = test: HIV-1 infection of C8166 cells (syncytia formation, p24 ELISA) with HIV-1 NL 4-3; parameters: key: ++, +, (+), (+)− and − represent decreasing numbers of syncitia formed; ++, +, (+), (+)− and − represent decreasing numbers of syncitia formed; ++, +, (+), (+)− and − represent decreasing numbers of syncitia formed; ++, +, (+), (+)− and − represent decreasing numbers of syncitia formed; ++, +, (+), (+)− and − represent decreasing numbers of syncitia formed; conditions: Table 6
Method in brief: (§1)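 C8166 T-cells were preincubated with peptide for 1 h at 37 °C, then exposed for 1 h to HIV-1 at 1000 TCID50/ml, washed, and cultured with peptide kept present throughout, with medium replaced at day 4. Infection was scored by syncytia formation and by supernatant p24 ELISA, with at least two runs in duplicate.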

HIV-1 NL 4-3 [2] = test: as above; parameters: key to syncitia formed, Day 4 / syncitia formed, Day 5 / syncitia formed, Day 6 / syncitia formed, Day 7: ++, +, (+), (+)− and − represent decreasing numbers of syncitia formed; ++, +, (+), (+)− and − represent decreasing numbers of syncitia formed; ++, +, (+), (+)− and − represent decreasing numbers of syncitia formed; ++, +, (+), (+)− and − represent decreasing numbers of syncitia formed; ++, +, (+), (+)− and − represent decreasing numbers of syncitia formed
Method in brief: as §1

HIV-1 NDK = test: HIV-1 infection of C8166 cells (syncytia formation, p24 ELISA) with HIV-1 NDK; parameters: key to syncitia formed, Day 4 / syncitia formed, Day 5 / syncitia formed, Day 6 / syncitia formed, Day 7: ++, +, (+), (+)− and − represent decreasing numbers of syncitia formed; ++, +, (+), (+)− and − represent decreasing numbers of syncitia formed; ++, +, (+), (+)− and − represent decreasing numbers of syncitia formed; ++, +, (+), (+)− and − represent decreasing numbers of syncitia formed; ++, +, (+), (+)− and − represent decreasing numbers of syncitia formed; conditions: for P 24: P 24 after Day 7
Method in brief: as §1

Structure (SMILES): C[C@H](NC(=O)[C@H](CCCNC(=N)N)NC(=O)CNC(=O)[C@@H]1CCCN1C(=O)CN)C(=O)NCCCCC(=O)O [GPGRA valeric acid, GPGRA-NHCH2CH2CH2CH2COOH] (H-GPGRA[Ava]-OH; N-terminus assumed)
- Day 4 syncitia formed (HIV-1 NL 4-3 [1]; 0.005 μM): −
- Day 5 syncitia formed (HIV-1 NL 4-3 [1]; 0.005 μM): +
- Day 6 syncitia formed (HIV-1 NL 4-3 [1]; 0.005 μM): ++
- Day 4 syncitia formed (HIV-1 NL 4-3 [1]; 0.01 μM): −
- Day 5 syncitia formed (HIV-1 NL 4-3 [1]; 0.01 μM): +
- Day 6 syncitia formed (HIV-1 NL 4-3 [1]; 0.01 μM): ++
- Day 7 syncitia formed (HIV-1 NL 4-3 [1]; 0.01 μM): ++
- Day 4 syncitia formed (HIV-1 NL 4-3 [1]; 0.05 μM): −
- Day 5 syncitia formed (HIV-1 NL 4-3 [1]; 0.05 μM): (+)
- Day 6 syncitia formed (HIV-1 NL 4-3 [1]; 0.05 μM): +
- Day 7 syncitia formed (HIV-1 NL 4-3 [1]; 0.05 μM): +
- Day 4 syncitia formed (HIV-1 NL 4-3 [1]; 0.1 μM): −
- Day 5 syncitia formed (HIV-1 NL 4-3 [1]; 0.1 μM): (+)
- Day 6 syncitia formed (HIV-1 NL 4-3 [1]; 0.1 μM): +
- Day 7 syncitia formed (HIV-1 NL 4-3 [1]; 0.1 μM): +
- Day 4 syncitia formed (HIV-1 NL 4-3 [1]; 0.5 μM): −
- Day 5 syncitia formed (HIV-1 NL 4-3 [1]; 0.5 μM): −
- Day 6 syncitia formed (HIV-1 NL 4-3 [1]; 0.5 μM): −
- Day 7 syncitia formed (HIV-1 NL 4-3 [1]; 0.5 μM): −
- Day 4 syncitia formed (HIV-1 NL 4-3 [1]; 1 μM): −
- Day 5 syncitia formed (HIV-1 NL 4-3 [1]; 1 μM): −
- Day 6 syncitia formed (HIV-1 NL 4-3 [1]; 1 μM): −
- Day 7 syncitia formed (HIV-1 NL 4-3 [1]; 1 μM): −
- Day 4 syncitia formed (HIV-1 NL 4-3 [1]; 5 μM): −
- Day 5 syncitia formed (HIV-1 NL 4-3 [1]; 5 μM): −
- Day 6 syncitia formed (HIV-1 NL 4-3 [1]; 5 μM): −
- Day 7 syncitia formed (HIV-1 NL 4-3 [1]; 5 μM): −
- Day 7 syncitia formed (HIV-1 NL 4-3 [2]; 0.005 μM, Table 6): ++/T
- syncitia formed, Day 4 (HIV-1 NL 4-3 [2]; 0.01 μM, C8166 cells): −
- syncitia formed, Day 5 (HIV-1 NL 4-3 [2]; 0.01 μM, C8166 cells): +
- syncitia formed, Day 6 (HIV-1 NL 4-3 [2]; 0.01 μM, C8166 cells): ++
- syncitia formed, Day 7 (HIV-1 NL 4-3 [2]; 0.01 μM, Day 7, C8166 cells): ++
- P 24 (HIV-1 NL 4-3 [2]; 0.01 μM, P 24 after Day 7, C8166 cells): 13870 pg/mL and 11810 pg/mL
- syncitia formed, Day 4 (HIV-1 NL 4-3 [2]; 0.05 μM, C8166 cells): −
- syncitia formed, Day 5 (HIV-1 NL 4-3 [2]; 0.05 μM, C8166 cells): (+)
- syncitia formed, Day 6 (HIV-1 NL 4-3 [2]; 0.05 μM, C8166 cells): +
- syncitia formed, Day 7 (HIV-1 NL 4-3 [2]; 0.05 μM, Day 7, C8166 cells): +
- syncitia formed, Day 4 (HIV-1 NL 4-3 [2]; 0.1 μM, C8166 cells): −
- syncitia formed, Day 5 (HIV-1 NL 4-3 [2]; 0.1 μM, C8166 cells): −
- syncitia formed, Day 6 (HIV-1 NL 4-3 [2]; 0.1 μM, C8166 cells): (+)
- syncitia formed, Day 7 (HIV-1 NL 4-3 [2]; 0.1 μM, Day 7, C8166 cells): +
- P 24 (HIV-1 NL 4-3 [2]; 0.1 μM, P 24 after Day 7, C8166 cells): 2356 pg/mL and 2416 pg/mL
- syncitia formed, Day 4 (HIV-1 NL 4-3 [2]; 0.5 μM, C8166 cells): −
- syncitia formed, Day 5 (HIV-1 NL 4-3 [2]; 0.5 μM, C8166 cells): −
- syncitia formed, Day 6 (HIV-1 NL 4-3 [2]; 0.5 μM, C8166 cells): −
- syncitia formed, Day 7 (HIV-1 NL 4-3 [2]; 0.5 μM, Day 7, C8166 cells): (+)
- syncitia formed, Day 4 (HIV-1 NL 4-3 [2]; 1 μM, C8166 cells): −
- syncitia formed, Day 5 (HIV-1 NL 4-3 [2]; 1 μM, C8166 cells): −
- syncitia formed, Day 6 (HIV-1 NL 4-3 [2]; 1 μM, C8166 cells): −
- syncitia formed, Day 7 (HIV-1 NL 4-3 [2]; 1 μM, Day 7, C8166 cells): −
- P 24 (HIV-1 NL 4-3 [2]; 1 μM, P 24 after Day 7, C8166 cells): 13 pg/mL and 10 pg/mL
- syncitia formed, Day 4 (HIV-1 NL 4-3 [2]; 5 μM, C8166 cells): −
- syncitia formed, Day 5 (HIV-1 NL 4-3 [2]; 5 μM, C8166 cells): −
- syncitia formed, Day 6 (HIV-1 NL 4-3 [2]; 5 μM, C8166 cells): −
- syncitia formed, Day 7 (HIV-1 NL 4-3 [2]; 5 μM, Day 7, C8166 cells): −
- P 24 (HIV-1 NL 4-3 [2]; 5 μM, P 24 after Day 7, C8166 cells): 2.7 pg/mL and 3 pg/mL
- IC50 (HIV-1 NL 4-3 [2]; C8166 cells, HIV-1 subtype B NL 4-3, Table 9, two lines = tested twice, 8 days apart): 10 nM
- P 24 (HIV-1 NL 4-3 [2]; Day 7, 0.005 μM, Table 6): 23810 pg/mL
- P 24 (HIV-1 NL 4-3 [2]; Day 7, 0.01 μM, Table 6): 13030 pg/mL and 13810 pg/mL
- P 24 (HIV-1 NL 4-3 [2]; Day 7, 0.05 μM, Table 6): 6830 pg/mL and 3820 pg/mL
- P 24 (HIV-1 NL 4-3 [2]; Day 7, 0.5 μM, Table 6): 2 pg/mL and 2.2 pg/mL
- P 24 (HIV-1 NL 4-3 [2]; Day 7, 1 μM, Table 6): 2.3 pg/mL and 1.9 pg/mL
- P 24 (HIV-1 NL 4-3 [2]; Day 7, 5 μM, Table 6): 2.7 pg/mL and 1.8 pg/mL
- syncitia formed, Day 4 (HIV-1 NDK; 0.005 μM): (+)
- syncitia formed, Day 5 (HIV-1 NDK; 0.005 μM): +
- syncitia formed, Day 6 (HIV-1 NDK; 0.005 μM): ++
- syncitia formed, Day 7 (HIV-1 NDK; 0.005 μM): ++
- P 24 (HIV-1 NDK; 0.005 μM): 23810 pg/mL
- syncitia formed, Day 4 (HIV-1 NDK; 0.01 μM): −
- syncitia formed, Day 5 (HIV-1 NDK; 0.01 μM): +
- syncitia formed, Day 6 (HIV-1 NDK; 0.01 μM): ++
- syncitia formed, Day 7 (HIV-1 NDK; 0.01 μM): ++
- P 24 (HIV-1 NDK; 0.01 μM): 13810 pg/mL and 18710 pg/mL
- syncitia formed, Day 4 (HIV-1 NDK; 0.05 μM): −
- syncitia formed, Day 5 (HIV-1 NDK; 0.05 μM): (+)
- syncitia formed, Day 6 (HIV-1 NDK; 0.05 μM): ++
- syncitia formed, Day 7 (HIV-1 NDK; 0.05 μM): ++
- syncitia formed, Day 4 (HIV-1 NDK; 0.1 μM): −
- syncitia formed, Day 5 (HIV-1 NDK; 0.1 μM): (+)
- syncitia formed, Day 6 (HIV-1 NDK; 0.1 μM): ++
- syncitia formed, Day 7 (HIV-1 NDK; 0.1 μM): ++
- P 24 (HIV-1 NDK; 0.1 μM): 5600 pg/mL and 6400 pg/mL
- syncitia formed, Day 4 (HIV-1 NDK; 0.5 μM): −
- syncitia formed, Day 5 (HIV-1 NDK; 0.5 μM): −
- syncitia formed, Day 6 (HIV-1 NDK; 0.5 μM): +
- syncitia formed, Day 7 (HIV-1 NDK; 0.5 μM): ++
- syncitia formed, Day 4 (HIV-1 NDK; 1 μM): −
- syncitia formed, Day 5 (HIV-1 NDK; 1 μM): −
- syncitia formed, Day 6 (HIV-1 NDK; 1 μM): −
- syncitia formed, Day 7 (HIV-1 NDK; 1 μM): +
- P 24 (HIV-1 NDK; 1 μM): 2000 pg/mL and 2403 pg/mL
- syncitia formed, Day 4 (HIV-1 NDK; 5 μM): −
- syncitia formed, Day 5 (HIV-1 NDK; 5 μM): −
- syncitia formed, Day 6 (HIV-1 NDK; 5 μM): −
- syncitia formed, Day 7 (HIV-1 NDK; 5 μM): − and (+)
- IC50 (HIV-1 NDK; HIV 1 NDK, Table 10): > 5000 nM
- IC100 (HIV-1 NDK; HIV 1 NDK, Table 10): 5 µM
